Source: patent US6087493A, “Porphyrin compounds as telomerase inhibitors” (Regents of the University of Texas System, priority 1998, dated 2000)
Like-named read-outs stand apart in the source and are kept apart here.

Experiments:
[1] = tested on: MDA-231; assay: Cytotoxicity (MTT) MDA-231; assay type: cell-based, human; conditions: Homo sapiens, MDA-MB-231; MDA-231 (breast), 4-7 days; read-out: IC 50 cytotoxicity
Procedure: (§1) The cells were cultured in the presence of the porphyrins incubator for 4-7 days and then treated with 3-(4,5-dimethylthiazol-2-yl)-2,5-diphenyl-tetrazolium bromide (MTT). Formazan concentration was quantitated by absorbance at 570 nm.

[2] = tested on: MCF7 cells; assay: Cell cycle analysis in MCF7 cells; assay type: cell-based, human
Procedure: The effects of TMPyP4 on the cell cycle were assessed by flow cytometry by measuring the percentage of cells in G1/G0, S, and G2/M phases, with and without treatment with the porphyrin. Cells were stained with 50 μg/ml propidium iodide in a hypotonic sodium citrate solution with 0.3% NP-40 and 1.0 mg/ml RNase-A at 1.0×10^6 cells/ml, vortexed and stained for 30 min at room temperature in the dark. Prior to flow cytometric measurements, samples were filtered through a 37 μm nylon mesh into 12×75 mm tubes and stored at 4° C. until analysis within 24 h. All samples were analyzed with an EPICS ELITE flow cytometer (Coulter Cytometry, Miami, Fla.) using a 15 m Watt argon ion laser operated at 6 Amps of power at 488 nm for fluorochrome excitation. Photomultiplier tube voltage was adjusted for each control sample to position the G0G1 to channel 240 on a 1024 channel presentation. The propidium iodide emission was collected through a 675 nm long pass filter. Histograms were analyzed for cell cycle compartments using MultiCycle-PLUS Version 3.0 (Phoenix Flow Systems, San Diego, Calif.). Histograms all had 50K events collected to maximize the statistical validity of the compartmental analysis.
The inventors examined whether the treatment of MCF7 cells with TMPyP4 affected the cell cycle.

[3] = tested on: HeLa cells; assay: Chromosome fusion in HeLa cells; assay type: cell-based, human; conditions: 3 μM, 2-4 days
[4] = tested on: MCF7 human breast carcinoma cells (telomerase activity); assay: Telomerase activity in intact MCF7 cells cultured with porphyrin; assay type: cell-based; conditions: 1, 10 and 100 μM, days 4, 8 and 15
Procedure: To determine the long-term effects of TMPyP4 on whole cells, MCF7 breast carcinoma cells were cultured in the continuous presence of 1, 10, and 100 μM TMPyP4. The porphyrin solution was freshly added to the medium from the concentrated stock at each passage of the cells (every 3-4 days). On days 4, 8, and 15, the cells were lysed and the telomerase activity was measured in the extracts.
Breast cancer cells MCF-7m, BT20, HS578t and normal HS578Bst cells were grown in culture in T75 flasks (10^6 cells/flask). […] The cells were harvested and freeze-thawed and the extracts used to measure telomerase activity using the Dynabeads method.

[5] = tested on: telomere length in MCF7 cells; assay: Telomere length analysis in MCF7 cells; assay type: cell-based, human; conditions: 1 and 10 μM, by day 8 (about 6 population doublings)
Procedure: DNA was extracted from a minimum of 5×10^6 cells by SDS, proteinase K treatment, then purified and quantitated as previously described (Strahl and Blackburn, 1991). Approximately 1 μg of total DNA was digested with Mse I; the digested DNA was size fractionated by agarose gel electrophoresis and Southern blotted. The blots were hybridized with a ^32 P-labeled 0.5 kb PCR™ DNA fragments composed of the telomere repeat d(TTAGGG), which served as a probe for the telomeres. The hybridized probe was detected by autoradiography and each lane on the film was analyzed by phosphoimage analysis (Molecular Dynamics).
Telomeres shorten at an average rate of 65-100 base pairs per cell division (Counter et al., 1992). To observe a significant effect of an agent on telomere length, e.g., shortening the telomeres by >1 kilobase in MCF7 cells (5.7 kbases), a minimum of […] population doubling times will be required.

[6] = tested on: Daudi; assay: cells; assay type: cell-based, human; conditions: Homo sapiens; Daudi (lymphoma), 4-7 days; read-out: IC 50 cytotoxicity
Procedure: as §1

[7] = in vitro; assay type: cell-based; conditions: human, hs578bst cells; HS578 Bst, Thy (n = 3 ± SEM); read-out: Cytotoxicity
Procedure: Cytotoxicity of the compounds to human breast cancer cells in vitro was assessed using a panel of cell lines representing estrogen receptor-positive (BT20, MCF-7m), and a pair of estrogen receptor-negative, transformed breast (11S578t) and normal breast (HS578Bst) cells.
Thy: tritiated […] assay (n = 3 ± SEM)

[8] = mice; cited from earlier work
[9] = tested on: DNA quadruplex in single-stranded template with four telomeric repeats; assay: DNA synthesis arrest assay (Taq DNA polymerase); assay type: biochemical
Procedure: This assay was a modification of that described by Weitzmann et al. (Wang and Patel, 1993). Briefly, primers (24 nM) labeled with [γ-^32 P] ATP were mixed with template DNA PQ74 (12 nM) in a Tris-HCl buffer (10 mM Tris, pH 8.0) containing 10 mM MgCl2 and heated at 90° C. for 4 min. After cooling at room temperature for 15 min, spermidine (to give 100 μM) and TMPyP4 (to give the concentrations indicated in the figure) were added. The primer extension reactions were initiated by adding dNTP (final concentration 100 μM) and Taq DNA polymerase (2.5 U/reaction, Boehringer Mannheim). The reactions were incubated at 55 C. (or otherwise as indicated) for 15 min, then stopped by adding an equal volume of stop buffer (95% formamide, 10 mM EDTA, 10 mM NaOH, 0.1% xylene cyanol, 0.1% bromophenol blue). The products were separated on a 12% polyacrylamide sequencing gel.
A single-stranded DNA template, which included four telomeric repeats, was taken, and an 18-base primer complementary to the […] was extended using Taq DNA polymerase.

[10] = tested on: MX-1 mammary carcinoma; conditions: for # CR's: n=20
Procedure: A MX-1 human breast tumor adjuvant model employed nude mice (Harlan Sprague Dawley, Inc.). The mice were implanted s.c. by trocar with fragments of MX-1 mammary carcinomas harvested from S.C. growing MX-1 tumors in nude mice hosts. When tumors were approximately 5 mm×5 mm in size (about 10 days after inoculation), the animals received cytoxan at 200 mg/kg. After tumors regressed (fifteen days after cytoxan administration), the animals were pair-matched into groups of mice, each of which was eartagged and followed individually throughout the experiment. The i.p. daily administration of TMPyP4 at 10 and 20 mg/kg five times weekly, began the day the animals were pairmatched (Day 1). TMPyP4 20 mg/kg was administered for 47 days. At the 10 mg/kg dose, TMPyP4 was administered continuously to the end of the study.
Mice were weighed twice weekly and tumor measurements were taken by calipers twice weekly, starting on Day 1. These tumor measurements were converted to mg tumor weight by a well-known formula, and from these calculated tumor weights, the termination date for each individual mouse was determined. Mice were euthanized when their tumors reached approximately 2 grams. Time to tumor recurrence and survival were monitored during the study.

With `C[n+]1ccc(-c2c3nc(c(-c4cc[n+](C)cc4)c4ccc([nH]4)c(-c4cc[n+](C)cc4)c4nc(c(-c5cc[n+](C)cc5)c5ccc2[nH]5)C=C4)C=C3)cc1` [TMPyP4, 5,10,15,20-tetra-(N-methyl-4-pyridyl)porphine] the IC50 [1] was 44 µM, the G2/M phase fraction ([2]; 100 μM, days 4, 8 and 15) was “time-dependent gradual increase in the G2/M phase” and the “MCF7 cells arrested in G2/M” value ([2]; long-term exposure) was “not more than 32%”. The fused chromosomes [3] was “number of fused chromosomes was increased in comparison with the untreated controls”, the “telomerase activity in intact MCF7 cells” value [4] was “clear concentration-dependent loss of telomerase activity” and the “telomerase activity in intact MCF7 cells” value ([4]; listed as tetra(N-methyl-4-pyridyl)porphyrin) was “telomerase activity is reduced relative to control cells”. The “effect on telomere shortening” value [5] was “No detectable effects on telomere shortening”, the IC50 [6] was 3.1 µM and the CC50 [7] was > 100 µM. For the same molecule, the “accumulation in tumor tissue” value [8] was “accumulation in tumor tissue in mice”, the “melting temperature of the quadruplex” value [9] was “increased the melting temperature of the quadruplex” and the “pause site band intensity” value ([9]; Tris buffer without K+ or Na+) was “more intense in a concentration-dependent manner”. The “persistence of bands at the pause site” value ([9]; temperature dependence) was “up to 65 °C”, the “# PS Remaining” value ([10]; 10 mg/kg) was 0 and the “# Partial Shrinkage” value ([10]; 10 mg/kg) was 2. For the same molecule, the “# Recur at 2 g” value ([10]; 10 mg/kg) was 6, the “# Remaining w/Tumors” value ([10]; 10 mg/kg) was 1 and the “# of Recur” value ([10]; 10 mg/kg) was 8. For the same molecule, the “# of Survivors” value ([10]; 10 mg/kg) was 11, the “# of Toxic Deaths” value ([10]; 10 mg/kg) was 1 and the “% CR's” value ([10]; 10 mg/kg) was 90%. The “Avg Day of Recur” value ([10]; 10 mg/kg) was 25 days, the MDS ([10]; 10 mg/kg) was 55 and the “MDS-Partial Shrinkages” value ([10]; 10 mg/kg) was 36.0. For the same molecule, the “Mean Tumor Wt.” value ([10]; 10 mg/kg) was 11.52 mg, the “# CR's” value ([10]; 10 mg/kg i.p. daily five times weekly) was 18 and the “# PS Remaining” value ([10]; 20 mg/kg) was 0. The “# Partial Shrinkage” value ([10]; 20 mg/kg) was 5, the “# Recur at 2 g” value ([10]; 20 mg/kg) was 8 and the “# Remaining w/Tumors” value ([10]; 20 mg/kg) was 0. The “# of Recur” value ([10]; 20 mg/kg) was 9, the “# of Survivors” value ([10]; 20 mg/kg) was 6 and the “# of Toxic Deaths” value ([10]; 20 mg/kg) was 1. The “% CR's” value ([10]; 20 mg/kg) was 75%, the “Avg Day of Recur” value ([10]; 20 mg/kg) was 19.33 days and the MDS ([10]; 20 mg/kg) was 67.4. For the same molecule, the “MDS-Partial Shrinkages” value ([10]; 20 mg/kg) was 44.6 and the “# CR's” value ([10]; 20 mg/kg i.p. daily five times weekly) was 15.
